According to patent US20060281700A1, “SYNERGISTIC MODULATION OF FLT3 KINASE USING AMINOPYRIMIDINES KINASE MODULATORS” (priority 2005, published 2006):

Target: T1, wild-type FLT3 phosphorylation in Baf3 FLT3 cells (Homo sapiens, UniProt P36888)
T1 sequence (P36888 27-993): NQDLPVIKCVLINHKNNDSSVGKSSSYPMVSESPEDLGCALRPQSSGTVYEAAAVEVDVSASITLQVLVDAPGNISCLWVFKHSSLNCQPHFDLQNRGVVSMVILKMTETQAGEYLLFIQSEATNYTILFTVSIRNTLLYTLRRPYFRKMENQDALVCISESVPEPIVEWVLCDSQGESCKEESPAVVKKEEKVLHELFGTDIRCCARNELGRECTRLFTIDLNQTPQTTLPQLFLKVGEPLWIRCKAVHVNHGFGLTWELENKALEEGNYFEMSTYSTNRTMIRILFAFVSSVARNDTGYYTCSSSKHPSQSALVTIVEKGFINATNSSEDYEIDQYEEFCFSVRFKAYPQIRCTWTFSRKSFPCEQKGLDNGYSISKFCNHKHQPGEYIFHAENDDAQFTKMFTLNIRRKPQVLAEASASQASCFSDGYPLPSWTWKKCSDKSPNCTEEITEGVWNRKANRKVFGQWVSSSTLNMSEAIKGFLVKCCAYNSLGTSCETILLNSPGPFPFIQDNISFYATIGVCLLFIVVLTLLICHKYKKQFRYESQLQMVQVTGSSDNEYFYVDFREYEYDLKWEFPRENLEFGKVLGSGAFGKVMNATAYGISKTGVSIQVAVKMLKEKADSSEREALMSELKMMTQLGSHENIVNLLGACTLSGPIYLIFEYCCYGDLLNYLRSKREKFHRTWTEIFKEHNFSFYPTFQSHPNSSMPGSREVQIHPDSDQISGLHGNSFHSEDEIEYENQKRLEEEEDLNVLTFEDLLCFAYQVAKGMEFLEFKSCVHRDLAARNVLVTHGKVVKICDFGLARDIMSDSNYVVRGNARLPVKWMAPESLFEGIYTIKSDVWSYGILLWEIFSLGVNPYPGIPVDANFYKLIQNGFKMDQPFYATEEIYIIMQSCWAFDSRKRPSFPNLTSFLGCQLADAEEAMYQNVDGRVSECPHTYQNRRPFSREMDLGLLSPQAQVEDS
Assay: Cell-Based FLT3 Receptor Elisa
Conditions: 1 hour compound, 100 ng/mL Flt ligand 10 min; uncertainty ±20%
Experimental: Cell-Based FLT3 Receptor Elisa
Specific cellular inhibition of FLT ligand-induced wild-type FLT3 phosphorylation was measured in the following manner: Baf3 FLT3 cells overexpressing the FLT3 receptor were obtained from Dr. Michael Heinrich (Oregon Health and Sciences University). The Baf3 FLT3 cell lines were created by stable transfection of parental Baf3 cells (a murine B cell lymphoma line dependent on the cytokine IL-3 for growth) with wild-type FLT3. Cells were selected for their ability to grow in the absence of IL-3 and in the presence of FLT3 ligand.
Baf3 cells were maintained in RPMI 1640 with 10% FBS, penn/strep and 10 ng/ml FLT ligand at 37° C., 5% CO2. To measure direct inhibition of the wild-type FLT3 receptor activity and phosphorylation a sandwich ELISA method was developed similar to those developed for other RTKs (see Sadick, M D, Sliwkowski, M X, Nuijens, A, Bald, L, Chiang, N, Lofgren, J A, Wong W L T. Analysis of Heregulin-Induced ErbB2 Phosphorylation with a High-Throughput Kinase Receptor Activation Enzyme-Linked Immunsorbent Assay, Analytical Biochemistry. 1996; 235:207-214 and Baumann C A, Zeng L, Donatelli R R, Maroney A C. Development of a quantitative, high-throughput cell-based enzyme-linked immunosorbent assay for detection of colony-stimulating factor-1 receptor tyrosine kinase inhibitors. J Biochem Biophys Methods. 2004; 60:69-79.). 200 μL of Baf3FLT3 cells (1×10^6/mL) were plated in 96 well dishes in RPMI 1640 with 0.5% serum and 0.01 ng/mL IL-3 for 16 hours prior to 1 hour compound or DMSO vehicle incubation. Cells were treated with 100 ng/mL Flt ligand (R&D Systems Cat# 308-FK) for 10 min. at 37° C. Cells were pelleted, washed and lysed in 100 ul lysis buffer (50 mM Hepes, 150 mM NaCl, 10% Glycerol, 1% Triton-X-100, 10 mM NaF, 1 mM EDTA, 1.5 mM MgCl2, 10 mM NaPyrophosphate) supplemented with phosphatase (Sigma Cat# P2850) and protease inhibitors (Sigma Cat #P8340). Lysates were cleared by centrifugation at 1000×g for 5 minutes at 4° C. Cell lysates were transferred to white wall 96 well microtiter (Costar #9018) plates coated with 50 ng/well anti-FLT3 antibody (Santa Cruz Cat# sc-480) and blocked with SeaBlock reagent (Pierce Cat#37527). Lysates were incubated at 4° C. for 2 hours. Plates were washed 3× with 200 ul/well PBS/0.1% Triton-X-100. Plates were then incubated with 1:8000 dilution of HRP-conjugated anti-phosphotyrosine antibody (Clone 4G10, Upstate Biotechnology Cat#16-105) for 1 hour at room temperature. Plates were washed 3× with 200 ul/well PBS/0.1% Triton-X-100. Signal detection with Super Signal Pico reagent (Pierce Cat#37070) was done according to manufacturer's instruction with a Berthold microplate luminometer. All data points are an average of triplicate samples. […] Inhibition and IC50 data analysis was done with GraphPad Prism using a non-linear regression fit with a multiparamater, sigmoidal dose-response (variable slope) equation.

IC50 [nM]	Compound
40	CO/N=C/c1c(N)ncnc1N1CCC(NC(=O)Nc2ccc(C3CCCCC3)cc2)CC1 [Number 22, 1-{1-[6-Amino-5-(methoxyimino-methyl)-pyrimidin-4-yl]-piperidin-4-yl}-3-(4-cyclohexyl-phenyl)-urea]
175	CO/N=C/c1c(N)ncnc1N1CCC(NC(=O)Nc2ccc(Oc3ccccc3)cc2)CC1 [Number 26, 1-{1-[6-Amino-5-(methoxyimino-methyl)-pyrimidin-4-yl]-piperidin-4-yl}-3-(4-phenoxy-phenyl)-urea]
